Experimental data reported in patent publication US20070276025A1, “Indirubin-Type Compounds, Compositions, and Methods for Their Use” (priority 2003, published 2007).
pEC50, pIC50: −log10 of the molar value. Where two headings read alike, the source gives them in different places.

Columns and labels:
CDK1/cyclin B = CDK1/cyclin B kinase assay (histone H1, 15 μM ATP); assay type: biochemical, starfish (Marthasterias glacialis)
GSK-3α/β = GSK-3α/β kinase assay (GS-1 peptide, 15 μM ATP); assay type: biochemical, porcine; details: for IC50: Table 6, read-out: GSK-3 (IC50 μM)
CDK5/p25 = CDK5/p25 (Homo sapiens, UniProt Q00535); experiment: CDK5/p25 kinase assay (histone H1, 15 μM ATP); assay type: biochemical, mammalian; details: for IC50: Table 6, read-out: CDK-5 (IC50 μM)
Sequence of CDK5/p25 (Q00535 whole entry, species assumed): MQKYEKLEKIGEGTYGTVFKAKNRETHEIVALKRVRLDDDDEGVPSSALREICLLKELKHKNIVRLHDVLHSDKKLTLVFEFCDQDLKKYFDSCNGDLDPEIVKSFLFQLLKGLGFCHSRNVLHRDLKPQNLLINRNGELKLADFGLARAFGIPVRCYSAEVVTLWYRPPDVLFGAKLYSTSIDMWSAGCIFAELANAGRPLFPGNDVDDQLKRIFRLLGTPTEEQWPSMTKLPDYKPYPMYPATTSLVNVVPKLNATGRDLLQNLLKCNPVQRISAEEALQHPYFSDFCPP
Sequence of CDK5/p25 (Q15078 99-307 partner limits assumed, species assumed): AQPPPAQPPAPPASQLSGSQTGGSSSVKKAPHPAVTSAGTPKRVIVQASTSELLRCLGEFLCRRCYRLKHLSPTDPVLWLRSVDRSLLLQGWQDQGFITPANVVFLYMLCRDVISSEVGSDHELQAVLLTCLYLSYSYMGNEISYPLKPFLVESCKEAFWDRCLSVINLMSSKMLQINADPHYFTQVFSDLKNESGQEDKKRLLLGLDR

AhR [1] = biological target: T1, AhR (Mus musculus, UniProt P30561); details: read-out: EC50 AhR (hepatoma cell line); Table 4; EGFP at 24 hours
T1 sequence (P30561 1-848): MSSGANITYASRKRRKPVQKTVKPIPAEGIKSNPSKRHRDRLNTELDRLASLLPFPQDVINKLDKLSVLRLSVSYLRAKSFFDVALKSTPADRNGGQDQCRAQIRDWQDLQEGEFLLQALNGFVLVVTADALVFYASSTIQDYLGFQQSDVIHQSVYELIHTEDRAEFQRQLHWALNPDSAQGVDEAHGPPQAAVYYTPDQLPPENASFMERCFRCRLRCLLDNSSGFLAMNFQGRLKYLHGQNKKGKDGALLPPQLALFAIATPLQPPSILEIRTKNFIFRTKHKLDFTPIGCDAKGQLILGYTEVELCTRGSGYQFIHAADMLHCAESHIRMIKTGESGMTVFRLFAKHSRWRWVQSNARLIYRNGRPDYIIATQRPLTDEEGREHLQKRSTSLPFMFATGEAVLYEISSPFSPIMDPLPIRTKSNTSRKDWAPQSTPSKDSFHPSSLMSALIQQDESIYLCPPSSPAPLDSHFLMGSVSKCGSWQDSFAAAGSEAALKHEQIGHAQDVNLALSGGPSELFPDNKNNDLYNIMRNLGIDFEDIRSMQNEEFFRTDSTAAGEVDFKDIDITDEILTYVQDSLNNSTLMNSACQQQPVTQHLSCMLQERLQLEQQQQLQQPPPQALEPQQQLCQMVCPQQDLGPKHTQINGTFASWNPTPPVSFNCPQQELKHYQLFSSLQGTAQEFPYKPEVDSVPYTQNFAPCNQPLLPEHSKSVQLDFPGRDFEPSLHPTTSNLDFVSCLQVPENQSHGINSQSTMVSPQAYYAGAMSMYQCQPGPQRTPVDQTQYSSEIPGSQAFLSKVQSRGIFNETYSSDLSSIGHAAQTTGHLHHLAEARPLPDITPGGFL

AhR [2] = biological target: AhR (Homo sapiens, UniProt P35869); experiment: Yeast AhR reporter assay (β-galactosidase); details: read-out: EC50 AhR (yeast); Table 4; * = inactive at the indicated highest concentration tested
Sequence of AhR (Homo sapiens, UniProt P35869) (P35869 11-848): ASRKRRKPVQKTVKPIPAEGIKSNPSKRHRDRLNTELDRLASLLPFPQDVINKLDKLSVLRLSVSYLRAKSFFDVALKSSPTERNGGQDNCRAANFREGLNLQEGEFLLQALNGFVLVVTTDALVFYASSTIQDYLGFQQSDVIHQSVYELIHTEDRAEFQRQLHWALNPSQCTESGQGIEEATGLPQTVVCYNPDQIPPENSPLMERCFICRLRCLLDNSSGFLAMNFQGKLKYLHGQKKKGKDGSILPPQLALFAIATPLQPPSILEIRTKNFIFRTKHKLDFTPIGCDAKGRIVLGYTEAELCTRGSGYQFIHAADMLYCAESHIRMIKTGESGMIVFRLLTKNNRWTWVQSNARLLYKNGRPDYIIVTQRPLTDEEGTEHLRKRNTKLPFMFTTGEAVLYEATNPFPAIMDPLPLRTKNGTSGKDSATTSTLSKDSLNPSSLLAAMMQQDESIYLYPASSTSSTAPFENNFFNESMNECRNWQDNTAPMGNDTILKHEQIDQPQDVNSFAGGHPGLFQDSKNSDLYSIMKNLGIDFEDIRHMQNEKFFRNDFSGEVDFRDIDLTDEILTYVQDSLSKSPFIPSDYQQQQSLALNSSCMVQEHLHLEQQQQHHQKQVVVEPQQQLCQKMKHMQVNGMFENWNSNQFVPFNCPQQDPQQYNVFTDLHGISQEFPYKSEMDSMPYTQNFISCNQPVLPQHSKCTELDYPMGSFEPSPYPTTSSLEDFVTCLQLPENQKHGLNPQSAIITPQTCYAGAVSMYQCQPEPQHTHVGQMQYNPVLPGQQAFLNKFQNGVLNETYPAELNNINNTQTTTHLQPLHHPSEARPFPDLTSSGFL
Sequence of AhR (Homo sapiens, UniProt P35869) (P27540 whole entry partner): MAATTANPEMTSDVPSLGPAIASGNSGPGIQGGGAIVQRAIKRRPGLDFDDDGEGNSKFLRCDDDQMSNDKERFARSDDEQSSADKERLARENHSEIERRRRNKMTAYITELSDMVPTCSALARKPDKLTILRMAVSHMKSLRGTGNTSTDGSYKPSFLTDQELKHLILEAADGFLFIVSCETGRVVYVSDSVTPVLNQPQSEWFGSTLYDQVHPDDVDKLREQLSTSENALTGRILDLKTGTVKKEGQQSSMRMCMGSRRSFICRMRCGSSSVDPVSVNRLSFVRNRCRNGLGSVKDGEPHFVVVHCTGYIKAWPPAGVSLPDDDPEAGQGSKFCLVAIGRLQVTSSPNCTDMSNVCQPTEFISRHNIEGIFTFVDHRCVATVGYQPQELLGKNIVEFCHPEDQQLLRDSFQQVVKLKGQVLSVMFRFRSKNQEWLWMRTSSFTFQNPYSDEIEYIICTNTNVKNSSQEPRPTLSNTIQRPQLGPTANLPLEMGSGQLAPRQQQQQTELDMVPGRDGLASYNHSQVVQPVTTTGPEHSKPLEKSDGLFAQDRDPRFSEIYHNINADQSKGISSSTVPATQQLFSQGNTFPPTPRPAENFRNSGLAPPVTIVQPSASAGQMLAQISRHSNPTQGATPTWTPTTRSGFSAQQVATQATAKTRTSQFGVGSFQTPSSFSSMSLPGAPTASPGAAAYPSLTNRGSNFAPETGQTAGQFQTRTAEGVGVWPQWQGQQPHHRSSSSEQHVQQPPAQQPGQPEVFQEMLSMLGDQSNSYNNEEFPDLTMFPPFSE

[3] = Table 5, read-out: IC50 CDK1/cyclin B
[4] = Table 5, read-out: IC50 GSK-3α/β
[5] = Table 7, GSK-3, read-out: IC50exp
[6] = Table 5, read-out: IC50 CDK5/p25
[7] = Table 1, read-out: IC50 CDK1/cyclin B
[8] = Table 4, read-out: IC50 CDK1/cycin B
[9] = Table 1, read-out: IC50 GSK-3 α/β
[10] = Table 1, read-out: IC50 CDK5/p25

Row | Compound | pIC50 (CDK1/cyclin B; [3]) | pIC50 (GSK-3α/β; [4]) | pIC50 (GSK-3α/β; [5]) | pIC50 (CDK5/p25; [6]) | also measured
1 | O=C1Nc2cc(F)ccc2C1=C1Nc2ccccc2C1=NO [7b, 6-Fluoroindirubin-3′-oxime] | 6.49 | 6.89 | 6.89 | 6.82 | –
2 | Cc1cc2c(cc1Br)NC(=O)C2=C1Nc2ccccc2C1=NO [7f, 6-Bromo-5-methylindirubin-3′-oxime] | – | – | – | 6.89 | –
3 | Nc1ccc2c(c1)/C(=C1/Nc3ccccc3C1=NO)C(=O)N2 [compound 24, 5-Amino-3′-oxime indirubin] | – | – | – | – | IC50 (GSK-3α/β): 0.75 µM; IC50 (CDK5/p25): 0.47 µM
4 | O=C1Nc2cc(Br)c([N+](=O)[O-])cc2C1=C1Nc2ccccc2C1=O [5g, 6-Bromo-5-nitroindirubin] | < 4.00 | 7.00 | 7.00 | < 4.00 | –
5 | O=C1Nc2ccccc2/C1=C1/Nc2cc(Br)ccc2C1=O [12a, 6′-Bromoindirubin] | < 4.00 | 4.66 | 4.66 | < 4.00 | pIC50 (CDK1/cyclin B; [7]): < 4.00; pIC50 (CDK1/cyclin B; [8]): < 4.00; pIC50 (GSK-3α/β; [9]): 4.66; pIC50 (GSK-3α/β; Table 4, read-out: IC50 GSK-3): 4.66; pEC50 (AhR [1]): 5.92; pIC50 (CDK5/p25; [10]): < 4.00; pEC50 (AhR [2]): 7.00
6 | O=C1Nc2cc(I)ccc2/C1=C1/Nc2ccccc2C1=O [5c, 6-Iodoindirubin] | 5.80 | 7.26 | 7.26 | 5.28 | pIC50 (CDK1/cyclin B; [8]): 5.80; pIC50 (GSK-3α/β; Table 4, read-out: IC50 GSK-3): 7.26; pEC50 (AhR [1]): 7.77; pEC50 (AhR [2]): 7.40
7 | 6-Chloroindirubin [5d] | < 4.00 | – | – | < 4.00 | pIC50 (CDK1/cyclin B; [8]): < 4.00; pEC50 (AhR [1]): 8.15; pEC50 (AhR [2]): 7.52
8 | CC(=O)O/N=C1/C(=C2/C(=O)Nc3cc(I)ccc32)Nc2ccccc21 [8c, 6-Iodoindirubin-3′-acetoxime] | 5.66 | 7.89 | – | 5.89 | –
9 | C=Cc1ccc2c(c1)NC(=O)C2=C1Nc2ccccc2C1=NOC(C)=O [8i, 6-vinylindirubin-3′-acetoxime] | 5.80 | 7.19 | – | 6.40 | –
10 | CC(=O)ON=C1C(=C2C(=O)Nc3cc(Cl)c(Cl)cc32)Nc2ccccc21 [8e, 5,6Dichloroindirubin-3′-acetoxime] | 4.52 | 8.40 | 8.40 | 7.00 | –
11 | CC(=O)ON=C1C(=C2C(=O)Nc3cc(Br)c(C)cc32)Nc2ccccc21 [8f, 6-Bromo-5-methylindirubin-3′-acetoxime] | 4.51 | 8.15 | 8.15 | 4.52 | –
12 | C=Cc1ccc2c(c1)NC(=O)C2=C1Nc2ccccc2C1=NO [7i, 6-Vinylindirubin-3′-oxime] | – | 7.22 | – | 6.38 | –
13 | O=C1Nc2cc(I)ccc2C1=C1Nc2ccccc2C1=NO [7c, 6-Iodoindirubin-3′-oxime] | – | – | – | 6.52 | pEC50 (AhR [1]): 6.36; pEC50 (AhR [2]): < 7.00
14 | O=C1Nc2cc(Br)c([N+](=O)[O-])cc2C1=C1Nc2ccccc2C1=NO [7g, 6-Bromo-5-nitroindirubin-3′-oxime] | – | – | – | 6.82 | –
15 | O=C1Nc2cc(Cl)ccc2C1=C1Nc2ccccc2C1=NO [7d, 6-Chloroindirubin-3′-oxime] | 6.19 | 7.70 | 7.70 | 7.00 | pIC50 (CDK1/cyclin B; [8]): 6.19; pIC50 (GSK-3α/β; Table 4, read-out: IC50 GSK-3): 7.70; pEC50 (AhR [1]): 6.70; pEC50 (AhR [2]): 8.40
16 | Nc1cc2c(cc1Br)NC(=O)C2=C1Nc2ccccc2C1=O [compound 27, 6-Bromo-5-aminoindirubin] | – | – | – | – | IC50 (GSK-3α/β): 0.054 µM; IC50 (CDK5/p25): 0.6 µM
17 | CN1C(=O)/C(=C2\Nc3ccccc3C2=O)c2ccccc21 [12d, 1-Methylindirubin] | < 4.00 | < 4.00 | – | < 4.00 | pIC50 (CDK1/cyclin B; [8]): < 4.00; pIC50 (GSK-3α/β; Table 4, read-out: IC50 GSK-3): < 4.00; pEC50 (AhR [1]): 6.08; pEC50 (AhR [2]): 8.22
18 | O=C1Nc2cc(F)ccc2/C1=C1/Nc2ccccc2C1=O [5b, 6-Fluoroindirubin] | – | – | – | 6.00 | –
19 | CON=C1C(=C2C(=O)Nc3ccccc32)Nc2ccccc21 [9b, Indirubin-3′-methoxime] | – | – | – | 6.40 | –
20 | Nc1cc2c(cc1Br)NC(=O)/C2=C1\Nc2ccccc2C1=NO [compound 28, 6-Bromo-5-amino-3′-oxime indirubin] | – | – | – | – | IC50 (GSK-3α/β): 0.056 µM; IC50 (CDK5/p25): 0.57 µM
21 | O=C1Nc2cc(Cl)c(Cl)cc2/C1=C1/Nc2ccccc2C1=O [5e, 5,6-Dichloroindirubin] | 4.35 | 7.52 | 7.52 | 4.22 | –
22 | Cc1cc2c(cc1Br)NC(=O)C2=C1Nc2ccccc2C1=O [5f, 6-Bromo-5-methylindirubin] | 4.52 | 7.60 | 7.60 | 4.22 | –
23 | C=Cc1ccc2c(c1)NC(=O)/C2=C1\Nc2ccccc2C1=O [5i, 6-Vinylindirubin] | 5.38 | 6.62 | – | 5.62 | –
24 | Nc1ccc2c(c1)C(=C1Nc3ccccc3C1=O)C(=O)N2 [compound 23, 5-Aminoindirubin] | – | – | – | – | IC50 (GSK-3α/β): 1.5 µM; pIC50 (CDK5/p25): 5.59
25 | CC(=O)ON=C1C(=C2C(=O)Nc3cc(Br)c([N+](=O)[O-])cc32)Nc2ccccc21 [8g, 6-Bromo-5-nitroindirubin-3′-acetoxime] | 4.96 | 8.22 | 8.22 | 4.51 | –
26 | O=C1Nc2ccc([N+](=O)[O-])cc2C1=C1Nc2ccccc2C1=O [5-Nitroindirubin, reference compound] | – | – | 7.38 | – | –
27 | O=C1Nc2ccc(F)cc2C1=C1Nc2ccccc2C1=O [5-Fluoroindirubin, reference compound] | – | – | 7.11 | – | –
28 | CC(=O)O/N=C1/C(=C2/C(=O)Nc3cc(Cl)ccc32)Nc2ccccc21 [8d, 6-Chloroindirubin-3′-acetoxime] | 4.52 | 7.77 | 7.77 | 6.70 | –
29 | O=C1Nc2cc(Br)ccc2/C1=C1/Nc2cc(Br)ccc2C1=O [12b, 6,6′-Dibromoindirubin] | < 4.00 | 5.35 | 5.35 | < 4.00 | pIC50 (CDK1/cyclin B; [7]): ≤ 4.00; pIC50 (CDK1/cyclin B; [8]): < 4.00; pIC50 (GSK-3α/β; [9]): 5.35; pIC50 (GSK-3α/β; Table 4, read-out: IC50 GSK-3): 5.35; pIC50 (GSK-3α/β; read-out: IC50 with GSK-3): 5.35; pEC50 (AhR [1]): < 5.00; pIC50 (CDK5/p25; [10]): < 4.00; pIC50 (CDK5/p25; read-out: IC50 with CDK5): < 4.00
30 | O=C1Nc2cc(Br)ccc2C1=C1Nc2ccccc2C1=O [5a, 6-Bromoindirubin] | – | – | – | 4.28 | pEC50 (AhR [1]): 8.10; pIC50 (CDK5/p25; [10]): 4.28; pEC50 (AhR [2]): 7.70
